Source: patent publication US11384078B2, “5,6-fused-bicyclic compounds and compositions for the treatment of parasitic diseases” (NOVARTIS AG, priority 2017, dated 2022)

Assays:
Assay type in all cases: cell-based
[1] = test system: Leishmania donovani axenic amastigote; test: In vitro assay for growth inhibition of Leishmania donovani axenic amastigote (Cell TiterGlo luminescence); settings: Leishmania donovani, L. donovani axenic amastigotes in vitro; read-out: L. donovani amastigotes EC50
Procedure, shortened: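 Axenic L. donovani amastigotes (9600/well) grown at 37 °C, 5% CO2 in supplemented RPMI 1640, pH 5.5, with compound added from DMSO. After two days, viability read by CellTiter-Glo luminescence against DMSO and control-compound wells.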

[2] = test system: L. donovani HU3 strain in mouse peritoneal macrophages; test: Assay for inhibition of parasitemia of Leishmania donovani in mouse macrophages (SYBR Green nuclei count, high-content imaging); settings: Leishmania donovani, Peritoneal macrophage, L. donovani in mouse peritoneal macrophages; read-out: L. donovani in Mouse Macrophages EC50
Procedure, shortened: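 Peritoneal macrophages from uninfected BALB/c mice were infected for 24 h with spleen-derived L. donovani HU3 (4×10^5 parasites per 2×10^4 macrophages), then cultured with compound for 5 days at 37° C, 5% CO2. After fixation and permeabilization, parasite nuclei were stained with SYBR Green and counted by high-content imaging.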

[3] = test system: Trypanosoma cruzi amastigotes cultured in 3T3 fibroblast cells; test: Assay for growth inhibition of kinetoplastid parasite Trypanosoma cruzi (beta-galactosidase Tulahuen strain, CPRG readout); settings: Trypanosoma cruzi, Fibroblast, T. cruzi amastigotes in 3T3 fibroblast cells; read-out: Buckner infectious T. cruzi EC50
Procedure, shortened: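 3T3 fibroblasts (1,000 cells/well) plated overnight, treated with compound in DMSO, then infected with 10,000 Lac-Z-expressing Tulahuen trypomastigotes. After 6 days, 0.6 mM CPRG with 0.6% NP-40 added for 2 h at room temperature; absorbance gives relative intracellular amastigote numbers. Benznidazole and nifurtimox serve as positive controls.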

[4] = test system: Trypanosoma brucei brucei (Lister 427) strain; test: Assay for growth inhibition against Trypanosoma brucei brucei (Cell TiterGlo ATP luminescence); settings: Trypanosoma brucei, T. brucei brucei (Lister 427); read-out: T. Brucei (HAT) EC50
Procedure, shortened: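 T. b. brucei Lister 427 grown in HMI-9 with 10% FBS and 10% serum plus, seeded at 10,000 parasites/mL with 10-point threefold compound dilutions in duplicate, 37 °C for 2 days. Viability read as ATP luminescence 30 min after Cell TiterGlo; IC50 versus untreated controls.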

SMILES | EC50 [1] | EC50 [2] | EC50 [3] | EC50 [4]
O=C(O)C1CCN(c2cnc3nn(-c4cc(NC(=O)N5CC(F)C5)ccc4F)cc3c2)CC1 [Compound 236, 1-(2-{2-fluoro-5-[(3-fluoroazetidine-1-carbonyl)amino]phenyl}-2H-pyrazolo[3,4-b]pyridin-5-yl)piperidine-4-carboxylic acid] | 264 nM | 29700 nM | 20000 nM | 1460 nM
O=C(Nc1ccc(F)c(-n2cc3cc(N4CCN(CC(F)(F)F)CC4)cnc3n2)c1)N1CC(F)C1 [Compound 237, 3-fluoro-N-(4-fluoro-3-{5-[4-(2,2,2-trifluoroethyl)piperazin-1-yl]-2H-pyrazolo[3,4-b]pyridin-2-yl}phenyl)azetidine-1-carboxamide] | 16 nM | 9 nM | 21 nM | 5 nM
O=C(Nc1ccc(F)c(-n2cc3cc(N4CCC(C5COC5)CC4)cnc3n2)c1)N1CC(F)C1 [Compound 238, 3-fluoro-N-(4-fluoro-3-{5-[4-(oxetan-3-yl)piperidin-1-yl]-2H-pyrazolo[3,4-b]pyridin-2-yl}phenyl)azetidine-1-carboxamide] | 25 nM | 32 nM | 33 nM | 5 nM
O=C(Nc1ccc(F)c(-n2cc3cc(N4CC5(CSC5)C4)cnc3n2)c1)N1CC(F)C1 [Compound 239, 3-fluoro-N-[4-fluoro-3-(5-{2-thia-6-azaspiro[3.3]heptan-6-yl}-2H-pyrazolo[3,4-b]pyridin-2-yl)phenyl}azetidine-1-carboxamide] | 1760 nM | 9 nM | 10 nM | 5 nM
O=C(Nc1ccc(F)c(-n2cc3cc(N4CC5CC(C4)O5)cnc3n2)c1)N1CC(F)C1 [Compound 240, 3-fluoro-N-[4-fluoro-3-(5-{6-oxa-3-azabicyclo[3.1.1]heptan-3-yl}-2H-pyrazolo[3,4-b]pyridin-2-yl)phenyl}azetidine-1-carboxamide] | 579 nM | 27 nM | 21 nM | 5 nM
O=C(Nc1ccc(F)c(-n2cc3cc(N4CCC5(CC5)C4)cnc3n2)c1)N1CC(F)C1 [Compound 241, N-[3-(5-{5-azaspiro[2.4]heptan-5-yl}-2H-pyrazolo[3,4-b]pyridin-2-yl)-4-fluorophenyl}-3-fluoroazetidine-1-carboxamide] | 1190 nM | 6 nM | 3 nM | 5 nM
O=C(Nc1ccc(F)c(-n2cc3cc(N4CCC5(CC5)C4)cnc3n2)c1)N1CCC2(CC2)C1 [Compound 242, N-[3-(5-{5-azaspiro[2.4]heptan-5-yl}-2H-pyrazolo[3,4-b]pyridin-2-yl)-4-fluorophenyl}-5-azaspiro[2.4]heptane-5-carboxamide] | 1970 nM | 106 nM | 7 nM | 13 nM
O=C(Nc1ccc(F)c(-n2cc3cc(N4CC5(CCC5)C4)cnc3n2)c1)N1CC(F)C1 [Compound 243, N-[3-(5-{2-azaspiro[3.3]heptan-2-yl}-2H-pyrazolo[3,4-b]pyridin-2-yl)-4-fluorophenyl}-3-fluoroazetidine-1-carboxamide] | 2100 nM | 65 nM | 82 nM | 5 nM
O=C(Nc1ccc(F)c(-n2cc3cc(N4CCC5(CCOCC5)C4)cnc3n2)c1)N1CC(F)C1 [Compound 244, 3-fluoro-N-[4-fluoro-3-(5-{8-oxa-2-azaspiro[4.5]decan-2-yl}-2H-pyrazolo[3,4-b]pyridin-2-yl)phenyl}azetidine-1-carboxamide] | 550 nM | 21 nM | 14 nM | 5 nM
O=C1CCC2(CN(c3cnc4nn(-c5cc(NC(=O)N6CC(F)C6)ccc5F)cc4c3)C2)N1 [Compound 245, 3-fluoro-N-[4-fluoro-3-(5-{6-oxo-2,5-diazaspiro[3.4]octan-2-yl}-2H-pyrazolo[3,4-b]pyridin-2-yl)phenyl}azetidine-1-carboxamide] | 311 nM | 1490 nM | 951 nM | 62 nM
O=C(Nc1ccc(F)c(-n2cc3cc(N4CC5(CCOC5)C4)cnc3n2)c1)N1CC2(CCOC2)C1 [Compound 246, N-[4-fluoro-3-(5-{6-oxa-2-azaspiro[3.4]octan-2-yl}-2H-pyrazolo[3,4-b]pyridin-2-yl)phenyl}-6-oxa-2-azaspiro[3.4]octane-2-carboxamide] | 535 nM | 379 nM | 2840 nM | 396 nM
CC(C)(C)OC(=O)N1CCCC1c1cnc2nn(-c3cc(NC(=O)N4CCC4)ccc3F)cc2c1 (centres unmarked) [Compound 247, tert-butyl 2-(2-{5-[(azetidine-1-carbonyl)amino]-2-fluorophenyl}-2H-pyrazolo[3,4-b]pyridin-5-yl)pyrrolidine-1-carboxylate] | 40 nM | 23 nM | 14 nM | 5 nM
O=C(Nc1ccc(F)c(-n2cc3cc(N4CCC5(CC4)COC5)cnc3n2)c1)N1CC(F)C1 [Compound 248, 3-fluoro-N-[4-fluoro-3-(5-{2-oxa-7-azaspiro[3.5]nonan-7-yl}-2H-pyrazolo[3,4-b]pyridin-2-yl)phenyl]azetidine-1-carboxamide] | 117 nM | 8 nM | 11 nM | 5 nM
O=C(Nc1ccc(F)c(-n2cc3cc(NC4CC4)cnc3n2)c1)N1CC(F)C1 [Compound 249, N-{3-[5-(cyclopropylamino)-2H-pyrazolo[3,4-b]pyridin-2-yl]-4-fluorophenyl}-3-fluoroazetidine-1-carboxamide] | 864 nM | 125 nM | 110 nM | 5 nM
O=C(Nc1ccc(F)c(-n2cc3cc(N4CCN(CC(F)(F)F)CC4)cnc3n2)c1)N1CCC1 [Compound 250, N-(4-fluoro-3-{5-[4-(2,2,2-trifluoroethyl)piperazin-1-yl]-2H-pyrazolo[3,4-b]pyridin-2-yl}phenyl)azetidine-1-carboxamide] | 43 nM | 10 nM | 1 nM | 5 nM
O=C(Nc1ccc(F)c(-n2cc3cc(Br)cnc3n2)c1)N1CC2(CC2)C1 [Compound 254, N-(3-(5-bromo-2H-pyrazolo[3,4-b]pyridin-2-yl)-4-fluorophenyl)-5-azaspiro[2.3]hexane-5-carboxamide] | 91 nM | 673 nM | 50 nM | 259 nM
CC1(C)CN(c2cnc3nn(-c4cc(NC(=O)N5CC(F)C5)ccc4F)cc3c2)C1 [Compound 255, N-{3-[5-(3,3-dimethylazetidin-1-yl)-2H-pyrazolo[3,4-b]pyridin-2-yl]-4-fluorophenyl}-3-fluoroazetidine-1-carboxamide] | 42 nM | 28 nM | 15 nM | 5 nM
O=C(Nc1ccc(F)c(-n2cc3cc(N4CC5(CC5)C4)cnc3n2)c1)N1CCC1 [Compound 257, N-(3-(5-(5-azaspiro[2.3]hexan-5-yl)-2H-pyrazolo[3,4-b]pyridin-2-yl)-4-fluorophenyl)azetidine-1-carboxamide] | 14 nM | 7 nM | 2 nM | 4 nM
O=C(Nc1ccc(F)c(-n2cc3cc(N4CC5(CC5)C4)cnc3n2)c1)N1CC(F)(F)C1 [Compound 258, N-[3-(5-{5-azaspiro[2.3]hexan-5-yl}-2H-pyrazolo[3,4-b]pyridin-2-yl)-4-fluorophenyl}-3,3-difluoroazetidine-1-carboxamide] | 23 nM | 39 nM | 12 nM | 28 nM
O=C(Nc1ccc(F)c(-n2cc3cc(N4CC5(CC5)C4)cnc3n2)c1)N1CC[C@@H](F)C1 [Compound 259, (3R)-N-[3-(5-{5-azaspiro[2.3]hexan-5-yl}-2H-pyrazolo[3,4-b]pyridin-2-yl)-4-fluorophenyl}-3-fluoropyrrolidine-1-carboxamide] | 12 nM | 16 nM | 3 nM | 4 nM
CN(C)c1cnc2nn(-c3cc(NC(=O)N4CC5(CC5)C4)ccc3F)cc2c1 [Compound 260, N-{3-[5-(dimethylamino)-2H-pyrazolo[3,4-b]pyridin-2-yl]-4-fluorophenyl}-5-azaspiro[2.3]hexane-5-carboxamide] | 221 nM | 224 nM | 49 nM | 43 nM
O=C(Nc1ccc(F)c(-n2cc3cc(N4C5COCC4C5)cnc3n2)c1)N1CC(F)C1 [Compound 263, 3-fluoro-N-[4-fluoro-3-(5-{3-oxa-6-azabicyclo[3.1.1]heptan-6-yl}-2H-pyrazolo[3,4-b]pyridin-2-yl)phenyl]azetidine-1-carboxamide] | 12 nM | 68 nM | 45 nM | 10 nM
O=C(Nc1ccc(F)c(-n2cc3cc(C4CCN4)cnc3n2)c1)N1CC(F)C1 (centres unmarked) [Compound 264, N-{3-[5-(azetidin-2-yl)-2H-pyrazolo[3,4-b]pyridin-2-yl]-4-fluorophenyl}-3-fluoroazetidine-1-carboxamide] | 357 nM | 13700 nM | 480 nM | 384 nM
